Tests used:
[1] = test system: DU145 cells; experiment: Cell viability of human prostate cell line (EZCytox); type: cell-based; settings: 48 hours, relative to DMSO control (FIG. 4)
Description: With regard to the human prostate cancer cell line DU145 cultured and maintained in Experimental Example 1, the culture medium and prostate cell culture were mixed, and 1×10^4 cells were seeded in a 96-well plate, and then cultured for 24 hours under conditions of 5% carbon dioxide and 37° C.
After being stabilized, the cells were treated with only 0.2% dimethyl sulfoxide as a control group, treated with testosterone (100 ng/mL or 200 ng/mL) alone, or treated with testosterone and 10 μM finasteride as a positive control, or testosterone and 1 μM, 10 μM, or 20 μM fucoxanthin, and then cultured for 48 hours.
Thereafter, the media were collected for LC-MS/MS analysis, and then cell viability of prostate cells was measured in order to examine whether treatment of the compound influences growth of the prostate cells. The cell viability was determined by measuring absorbance at 450 nm after adding an EZCytox reagent (Daeil Lab Service, Korea) and culturing for 1-4 hours under conditions of 5% carbon dioxide and 37° C. The cell viability was calculated as a percentage relative to cell viability of the control group treated with dimethyl sulfoxide (DMSO) only.

[2] = test system: dihydrotestosterone production in prostate cell DU145; experiment: Dihydrotestosterone production-inhibitory activity in prostate cells (LC-MS/MS); type: cell-based, human; settings: 48 hours
Description: CWR-22Rv1, LNCaP, DU145, and PC-3 cells which are human prostate cancer cell lines were cultured and maintained in an RPMI medium (Roswell Park Memorial Institute medium) supplemented with 10% heat-inactivated fetal bovine serum (FBS), 10 U/mL penicillin, and 100 μg/mL streptomycin under conditions of 5% carbon dioxide and 37° C. The internal standard compound was dissolved in dimethyl sulfoxide at a concentration of 10 μM, and 1 μL thereof was added to 150 μL of cell culture, and treated to a cartridge to perform sample pretreatment. […] Thereafter, re-solvation was performed by using 50% aqueous methanol, and products were kept frozen at −20° C. Mass spectrometry of the stored samples was performed by using an AB SCIEX API 4000 QTRAP tandem quadrupole mass spectrometer. HPLC system used herein was Agilent 1200 pump, and solvent A was water/acetonitrile (95:5 v/v, 0.1% formic acid), and solvent B was acetonitrile/water (95:5 v/v, 0.1% formic acid). For chromatography separation, a linear gradient from 40% B solvent to 100% B solvent in 8 minutes was used. An analysis column used herein was an XTerra MS C18 column (2.1 mm×150 mm, 3.5 μm) of Waters corporation, and analysis was performed while maintaining temperature at 25° C. and a flow rate of 0.2 mL/min. […]

| Compound | cell viability of prostate cells ([1]; DU145, testosterone plus finasteride 10 μM) | dihydrotestosterone production ([2]; DU145, testosterone 100 ng/mL plus finasteride 10 μM, vs testosterone alone (FIG. 3)) | cell viability of prostate cells ([1]; DU145, testosterone plus fucoxanthin 1 μM, 10 μM or 20 μM) | dihydrotestosterone production ([2]; DU145, testosterone 100 ng/mL plus fucoxanthin 1 μM, 10 μM, 20 μM, vs testosterone alone, inhibition increased with concentration (FIG. 3)) |
| --- | --- | --- | --- | --- |
| CC(C)(C)NC(=O)[C@H]1CC[C@H]2[C@@H]3CC[C@H]4NC(=O)C=C[C@]4(C)[C@H]3CC[C@]12C [finasteride] | did not influence cell viability | remarkably inhibited | – | – |
| CC(=O)O[C@H]1CC(C)(C)C(=C=C/C(C)=C/C=C/C(C)=C/C=C/C=C(C)/C=C/C=C(\C)C(=O)C[C@@]23O[C@]2(C)C[C@@H](O)CC3(C)C)[C@](C)(O)C1 [fucoxanthin] | – | – | did not influence cell viability | remarkably inhibited |
